Marks after values point to notes of the source that are not given here.
Legend:
[1] = tested on: Pseudomonas aeruginosa, Escherichia coli, Enterobacter cloacae, Acinetobacter calcoaceticus; test: Repeat in-can challenge test, same conditions (Table 2); format: cell-based
Description: (§1) Various formulations were made in accordance with the present disclosure and tested for performance. In one challenge test, the efficacy of dicyandiamide as an adjuvant for BIT was evaluated using modified ASTM D2574-97 “Standard Test Method for Resistance of Emulsion Paints in the Container to Attack by Microorganisms” with higher inoculation volumes and frequency. A standard consortium of four (4) bacterial populations: Pseudomonas aeruginosa, Escherichia coli, Enterobacter cloacae, Acinetobacter calcoaceticus was used to inoculate three (3) different samples at ten percent (10%), five percent (5%), or two and a half percent (2.5%) of the sample size. At twenty-four (24) hours and seventy-two (72) hours after each inoculation, a portion of each sample was streaked on tryptic soy agar. A dilution plate count was performed at the last seventy-two (72) hour time point.
(§2) Example data provided in Tables 1, 2 and 3 should be understood as indicating the degree of microbial growth observed for a given data point unless otherwise indicated. In particular, each plate is ranked from 0 through 5c (i.e., one of 0, 1, 2, 3, 4, 5, or 5c) according to the degree of observed microbial growth, where: a “0” ranking indicates no growth; a “1” ranking indicates one (1) through five (5) observed colony forming unit (cfu), i.e., the plate was very lightly contaminated; a “2” ranking indicates six (6) through fifteen (15) cfu, i.e., the plate was lightly contaminated; a “3” ranking indicates sixteen (16) through thirty (30) cfu, i.e., the plate was moderately contaminated; a “4” ranking indicates thirty-one (31) through forty-five (45) cfu, i.e., the plate was heavily contaminated; a “5” ranking indicates greater than (45) cfu, i.e., the plate was severely contaminated; and a “5c” ranking indicates confluent growth, i.e., the plate was very severely contaminated. Thus, for instance, Table 1, Challenge 1 at 24 h for BIT 50 ppm has a value of 5 indicating greater than forty-five (45) cfu were observed. As another example for illustration, Table 1, Challenge 1 at 24 h for dicyandiamide 5,000 ppm + BIT 50 ppm has a value of 1 indicating one (1) through five (5) cfu was observed.

[2] = tested on: Pseudomonas aeruginosa, Escherichia coli, Enterobacter cloacae, Acinetobacter calcoaceticus; test: In-can challenge test, modified ASTM D2574-97 (Table 1); format: cell-based
Description: as §1, §2

[3] = tested on: bacteria, fungi, and yeast; details: background statement; cited from earlier work
[4] = neutral pH; cited from earlier work
microbial growth = test: In-can challenge test of dicyandiamide as adjuvant for MIT (Table 3); format: cell-based; details: for Passing result of challenge test (asterisk on sample) / 1st 24, degree of microbial growth (ranking) / 1st 72, degree of microbial growth (ranking) / 2nd 72, degree of microbial growth (ranking) / 3rd 24, degree of microbial growth (ranking) / 3rd 72, degree of microbial growth (ranking): Dicyandiamide 0
Source text: However, using a combination of MIT and dicyandiamide can allow for effective microbial control at MIT concentrations as low as 20 ppm.
as §2

[5] = MIT - 50 30 ppm (MIT 15 ppm as active)
[6] = MIT - 50 40 ppm (MIT 20 ppm as active)
[7] = MIT - 50 50 ppm (MIT 25 ppm as active)
[8] = MIT - 50 60 ppm (MIT 30 ppm as active)
[9] = MIT - 50 70 ppm (MIT 35 ppm as active)

What does the source list for `N#CN=C(N)N` [Dicyandiamide, 2-cyanoguanidine]?
Challenge 1 10% 24 h, degree of microbial growth (ranking) ([1]; Dicyandiamide 5,000 ppm): 5c; Challenge 1 10% 72 h, degree of microbial growth (ranking) ([1]; Dicyandiamide 5,000 ppm): 5c; Challenge 2 5% 72 h, degree of microbial growth (ranking) ([1]; Dicyandiamide 5,000 ppm): 5c; Challenge 3 2.5% 24 h, degree of microbial growth (ranking) ([1]; Dicyandiamide 5,000 ppm): 5c; Challenge 3 2.5% 72 h, dilution plate count ([1]; Dicyandiamide 5,000 ppm): 2.4×10^7; Challenge 1 10% 24 h, degree of microbial growth (ranking) ([2]; Dicyandiamide 5,000 ppm): 5c; Challenge 1 10% 72 h, degree of microbial growth (ranking) ([2]; Dicyandiamide 5,000 ppm): 5c; Challenge 2 5% 72 h, degree of microbial growth (ranking) ([2]; Dicyandiamide 5,000 ppm): 5c; Challenge 3 2.5% 24 h, degree of microbial growth (ranking) ([2]; Dicyandiamide 5,000 ppm): 5c; Challenge 3 2.5% 72 h, dilution plate count ([2]; Dicyandiamide 5,000 ppm): 8.0×10^6; Challenge 1 10% 24 h, degree of microbial growth (ranking) ([2]; Dicyandiamide 10,000 ppm): 5c; Challenge 1 10% 72 h, degree of microbial growth (ranking) ([2]; Dicyandiamide 10,000 ppm): 1 (one (1) through five (5) observed colony forming unit (cfu), i.e., the plate was very lightly contaminated); Challenge 2 5% 72 h, degree of microbial growth (ranking) ([2]; Dicyandiamide 10,000 ppm): 5 (greater than (45) cfu, i.e., the plate was severely contaminated); Challenge 3 2.5% 24 h, degree of microbial growth (ranking) ([2]; Dicyandiamide 10,000 ppm): 5 (greater than (45) cfu, i.e., the plate was severely contaminated); Challenge 3 2.5% 72 h, dilution plate count ([2]; Dicyandiamide 10,000 ppm): 4.2×10^6; Efficacy in challenge test compared to the blank ([2]; dicyandiamide alone, not in combination with BIT, Table 1): no significant difference compared to the blank

Which results are given for `O=c1[nH]sc2ccccc12` [BIT, 1,2-benzisothiazolin-3-one]?
Challenge 1 10% 24 h, degree of microbial growth (ranking) ([1]; BIT 35 ppm): 5c; Challenge 1 10% 72 h, degree of microbial growth (ranking) ([1]; BIT 35 ppm): 5c; Challenge 2 5% 72 h, degree of microbial growth (ranking) ([1]; BIT 35 ppm): 5c; Challenge 3 2.5% 24 h, degree of microbial growth (ranking) ([1]; BIT 35 ppm): 5c; Challenge 3 2.5% 72 h, dilution plate count ([1]; BIT 35 ppm): 3.0×10^6; Challenge 1 10% 24 h, degree of microbial growth (ranking) ([1]; BIT 50 ppm): 5c; Challenge 1 10% 72 h, degree of microbial growth (ranking) ([1]; BIT 50 ppm): 5c; Challenge 2 5% 72 h, degree of microbial growth (ranking) ([1]; BIT 50 ppm): 5c; Challenge 3 2.5% 24 h, degree of microbial growth (ranking) ([1]; BIT 50 ppm): 5c; Challenge 3 2.5% 72 h, dilution plate count ([1]; BIT 50 ppm): 6.6×10^6; Challenge 1 10% 24 h, degree of microbial growth (ranking) ([1]; BIT 65 ppm): 5c; Challenge 1 10% 72 h, degree of microbial growth (ranking) ([1]; BIT 65 ppm): 3 (sixteen (16) through thirty (30) cfu, i.e., the plate was moderately contaminated); Challenge 2 5% 72 h, degree of microbial growth (ranking) ([1]; BIT 65 ppm): 5c; Challenge 3 2.5% 24 h, degree of microbial growth (ranking) ([1]; BIT 65 ppm): 5c; Challenge 3 2.5% 72 h, dilution plate count ([1]; BIT 65 ppm): 1.0×10^6; Challenge 1 10% 24 h, degree of microbial growth (ranking) ([1]; BIT 75 ppm): 5c; Challenge 1 10% 72 h, degree of microbial growth (ranking) ([1]; BIT 75 ppm): 0; Challenge 2 5% 72 h, degree of microbial growth (ranking) ([1]; BIT 75 ppm): 5 (greater than (45) cfu, i.e., the plate was severely contaminated); Challenge 3 2.5% 24 h, degree of microbial growth (ranking) ([1]; BIT 75 ppm): 5c; Challenge 3 2.5% 72 h, dilution plate count ([1]; BIT 75 ppm): 2.8×10^5; Challenge 1 10% 24 h, degree of microbial growth (ranking) ([1]; BIT 100 ppm): 5c; Challenge 1 10% 72 h, degree of microbial growth (ranking) ([1]; BIT 100 ppm): 0; Challenge 2 5% 72 h, degree of microbial growth (ranking) ([1]; BIT 100 ppm): 5 (greater than (45) cfu, i.e., the plate was severely contaminated); Challenge 3 2.5% 24 h, degree of microbial growth (ranking) ([1]; BIT 100 ppm): 5c; Challenge 3 2.5% 72 h, dilution plate count ([1]; BIT 100 ppm): 1.8×10^7; Challenge 1 10% 24 h, degree of microbial growth (ranking) ([2]; BIT 50 ppm): 5 (greater than (45) cfu, i.e., the plate was severely contaminated); Challenge 1 10% 72 h, degree of microbial growth (ranking) ([2]; BIT 50 ppm): 2 (six (6) through fifteen (15) cfu, i.e., the plate was lightly contaminated); Challenge 2 5% 72 h, degree of microbial growth (ranking) ([2]; BIT 50 ppm): 5 (greater than (45) cfu, i.e., the plate was severely contaminated); Challenge 3 2.5% 24 h, degree of microbial growth (ranking) ([2]; BIT 50 ppm): 5c; Challenge 3 2.5% 72 h, dilution plate count ([2]; BIT 50 ppm): 7.8×10^6; Challenge 1 10% 24 h, degree of microbial growth (ranking) ([2]; BIT 100 ppm): 5 (greater than (45) cfu, i.e., the plate was severely contaminated); Challenge 1 10% 72 h, degree of microbial growth (ranking) ([2]; BIT 100 ppm): 0; Challenge 2 5% 72 h, degree of microbial growth (ranking) ([2]; BIT 100 ppm): 0; Challenge 3 2.5% 24 h, degree of microbial growth (ranking) ([2]; BIT 100 ppm): 5 (greater than (45) cfu, i.e., the plate was severely contaminated); Challenge 3 2.5% 72 h, dilution plate count ([2]; BIT 100 ppm): 5.0×10^1; Amount required for a reliable and quick biocidal activity [3]: ≤ 500 ppm

For Zinc pyrithione [ZPT], which Solubility in water [4] is on record?
The Solubility in water was 8 ppm.

Which results are given for `Cn1sccc1=O` [MIT - 50, 2-methyl-4-isothiazolin-3-one]?
Passing result of challenge test (asterisk on sample) (microbial growth; MIT 30 ppm as active): MIT - 50 60 ppm (30)*; Passing result of challenge test (asterisk on sample) (microbial growth; MIT 35 ppm as active): MIT - 50 70 ppm (35)*; 1st 24, degree of microbial growth (ranking) (microbial growth; [5]): 5 (greater than (45) cfu, i.e., the plate was severely contaminated); 1st 72, degree of microbial growth (ranking) (microbial growth; [5]): 5 (greater than (45) cfu, i.e., the plate was severely contaminated); 2nd 72, degree of microbial growth (ranking) (microbial growth; [5]): 5 (greater than (45) cfu, i.e., the plate was severely contaminated); 3rd 24, degree of microbial growth (ranking) (microbial growth; [5]): 5 (greater than (45) cfu, i.e., the plate was severely contaminated); 3rd 72, degree of microbial growth (ranking) (microbial growth; [5]): 5 (greater than (45) cfu, i.e., the plate was severely contaminated); 1st 24, degree of microbial growth (ranking) (microbial growth; [6]): 5 (greater than (45) cfu, i.e., the plate was severely contaminated); 1st 72, degree of microbial growth (ranking) (microbial growth; [6]): 5 (greater than (45) cfu, i.e., the plate was severely contaminated); 2nd 72, degree of microbial growth (ranking) (microbial growth; [6]): 5 (greater than (45) cfu, i.e., the plate was severely contaminated); 3rd 24, degree of microbial growth (ranking) (microbial growth; [6]): 5 (greater than (45) cfu, i.e., the plate was severely contaminated); 3rd 72, degree of microbial growth (ranking) (microbial growth; [6]): 5 (greater than (45) cfu, i.e., the plate was severely contaminated); 1st 24, degree of microbial growth (ranking) (microbial growth; [7]): 5 (greater than (45) cfu, i.e., the plate was severely contaminated); 1st 72, degree of microbial growth (ranking) (microbial growth; [7]): 2 (six (6) through fifteen (15) cfu, i.e., the plate was lightly contaminated); 2nd 72, degree of microbial growth (ranking) (microbial growth; [7]): 5 (greater than (45) cfu, i.e., the plate was severely contaminated); 3rd 24, degree of microbial growth (ranking) (microbial growth; [7]): 5 (greater than (45) cfu, i.e., the plate was severely contaminated); 3rd 72, degree of microbial growth (ranking) (microbial growth; [7]): 5 (greater than (45) cfu, i.e., the plate was severely contaminated); 1st 24, degree of microbial growth (ranking) (microbial growth; [8]): 5 (greater than (45) cfu, i.e., the plate was severely contaminated); 1st 72, degree of microbial growth (ranking) (microbial growth; [8]): 0; 2nd 72, degree of microbial growth (ranking) (microbial growth; [8]): 5 (greater than (45) cfu, i.e., the plate was severely contaminated); 3rd 24, degree of microbial growth (ranking) (microbial growth; [8]): 5 (greater than (45) cfu, i.e., the plate was severely contaminated); 3rd 72, degree of microbial growth (ranking) (microbial growth; [8]): 0; 1st 24, degree of microbial growth (ranking) (microbial growth; [9]): 5 (greater than (45) cfu, i.e., the plate was severely contaminated); 1st 72, degree of microbial growth (ranking) (microbial growth; [9]): 0; 2nd 72, degree of microbial growth (ranking) (microbial growth; [9]): 0; 3rd 24, degree of microbial growth (ranking) (microbial growth; [9]): 5 (greater than (45) cfu, i.e., the plate was severely contaminated); 3rd 72, degree of microbial growth (ranking) (microbial growth; [9]): 0; MIT concentration displaying passing results (microbial growth; MIT alone, no guanidine enhancer): ≥ 30 ppm
